According to patent US9181275B2, “Mercaptoamidine derivatives and methods of use” (AbbVie Inc., priority 2011, dated 2015):

Columns and labels:
[1] = biological target: native H3 receptors from rat cerebral cortices (Rattus norvegicus (Rat), UniProt Q9QYN8); experiment: H3 receptor competition binding with [3H]-N-α-methylhistamine, rat cerebral cortex membranes; details: [3H]-N-α-methylhistamine competition binding
[2] = test system: locomotor stimulation induced by amphetamine; details: animals; Clapham J., et al. 1994; cited from earlier work

Chain of native H3 receptors from rat cerebral cortices (Q9QYN8 whole entry): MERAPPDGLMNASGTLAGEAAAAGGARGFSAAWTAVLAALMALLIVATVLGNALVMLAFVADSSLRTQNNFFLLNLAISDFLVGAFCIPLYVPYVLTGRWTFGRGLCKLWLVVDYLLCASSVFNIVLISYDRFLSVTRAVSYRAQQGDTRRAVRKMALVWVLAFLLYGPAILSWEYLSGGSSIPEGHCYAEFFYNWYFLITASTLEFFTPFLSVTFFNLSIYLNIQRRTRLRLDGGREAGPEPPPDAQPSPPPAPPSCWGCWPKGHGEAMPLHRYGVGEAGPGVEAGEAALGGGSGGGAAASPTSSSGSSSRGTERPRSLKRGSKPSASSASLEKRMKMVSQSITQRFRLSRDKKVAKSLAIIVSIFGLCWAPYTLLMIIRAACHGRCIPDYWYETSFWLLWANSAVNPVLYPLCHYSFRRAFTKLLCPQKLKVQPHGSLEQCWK

| Ki [1] | rat cortex (pKi) [1] | SMILES | effect on amphetamine-induced locomotor stimulation [2] |
| --- | --- | --- | --- |
| 0.05 nM | 10.3 | CC1=C(c2ccc(OCCCN3CCCCC3)cc2)SC2=NCc3ccccc3CN21 [Example 2, 3-methyl-2-[4-(3-piperidin-1-ylpropoxy)phenyl]-5,10-dihydro[1,3]thiazolo[3,2-b][2,4]benzodiazepine] |  |
| 0.02 nM | 10.7 | CC1=C(c2ccc(OCCCN3CCC[C@H]3C)cc2)SC2=NCc3ccccc3CN21 [Example 3, 3-methyl-2-(4-{3-[(2R)-2-methylpyrrolidin-1-yl]propoxy}phenyl)-5,10-dihydro[1,3]thiazolo[3,2-b][2,4]benzodiazepine] |  |
| 0.324 nM | 9.49 | CC1=C(c2ccc(OCCCN3CCOCC3)cc2)SC2=NCc3ccccc3CN21 [Example 4, 3-methyl-2-[4-(3-morpholin-4-ylpropoxy)phenyl]-5,10-dihydro[1,3]thiazolo[3,2-b][2,4]benzodiazepine] |  |
|  |  | S=C(NC1CCCCC1)N1CCC(c2cnc[nH]2)CC1 [thioperamide] | suppresses the locomotor stimulation induced by amphetamine |
